According to paper PMC5218480 (PLoS ONE, 2017):

Tested on: MV-4-11 cells
Experiment: Gene expression microarray analysis (Affymetrix PrimeView) and GSEA
Format: cell-based, human
Design: RFU PODN (11730768_x_at) / Fold change /veh PODN (11730768_x_at) / RFU LINC00158 (11744669_a_at) / Fold change /veh LINC00158 (11744669_a_at) / RFU DUSP10 (11751237_a_at) / Fold change /veh DUSP10 (11751237_a_at) / RFU ID3 (11757404_x_at) / Fold change /veh ID3 (11757404_x_at) / RFU PLEKHG5 (11737974_s_at) / Fold change /veh PLEKHG5 (11737974_s_at) / RFU LRRC4B (11730491_at) / Fold change /veh LRRC4B (11730491_at) / RFU GIMAP4 (11747438_a_at) / Fold change /veh GIMAP4 (11747438_a_at) / RFU KRT8 (11758183_x_at) / Fold change /veh KRT8 (11758183_x_at) / RFU CNN1 (11734310_a_at) / Fold change /veh CNN1 (11734310_a_at) / RFU VPS37D (11726825_at) / Fold change /veh VPS37D (11726825_at) / RFU C10orf10 (11716522_x_at) / Fold change /veh C10orf10 (11716522_x_at) / RFU KIR2DL2 /// KIR2DL4 /// KIR2DL5A /// KIR2DL5B /// KIR2DS1 /// KIR2DS2 /// KIR2DS3 /// KIR2DS4 /// KIR3DL3 /// KIR3DL3 /// KIR3DS1 (11738374_at) / Fold change /veh KIR2DL2 /// KIR2DL4 /// KIR2DL5A /// KIR2DL5B /// KIR2DS1 /// KIR2DS2 /// KIR2DS3 /// KIR2DS4 /// KIR3DL3 /// KIR3DL3 /// KIR3DS1 (11738374_at) / RFU C1QL1 (11718748_at) / Fold change /veh C1QL1 (11718748_at) / RFU TMPRSS4 (11747572_a_at) / Fold change /veh TMPRSS4 (11747572_a_at) / RFU HAMP (11756126_x_at) / Fold change /veh HAMP (11756126_x_at) / RFU RNFT2 (11725882_a_at) / Fold change /veh RNFT2 (11725882_a_at) / RFU NR4A2 (11747474_a_at) / Fold change /veh NR4A2 (11747474_a_at) / RFU ABCC12 (11746883_a_at) / Fold change /veh ABCC12 (11746883_a_at) / RFU TMEM136 (11760407_x_at) / Fold change /veh TMEM136 (11760407_x_at) / RFU CLDN22 /// WWC2 (11732394_at) / Fold change /veh CLDN22 /// WWC2 (11732394_at) / RFU HLA-DPB1 (11760878_x_at) / Fold change /veh HLA-DPB1 (11760878_x_at) / RFU SPINT1 (11716480_a_at) / Fold change /veh SPINT1 (11716480_a_at) / RFU GAP43 (11754022_s_at) / Fold change /veh GAP43 (11754022_s_at) / RFU A4GNT (11735810_at) / Fold change /veh A4GNT (11735810_at) / RFU PRB3 (11715151_x_at) / Fold change /veh PRB3 (11715151_x_at) / RFU TUBB4B (11761932_at) / Fold change /veh TUBB4B (11761932_at) / RFU CAPN14 (11732068_a_at) / Fold change /veh CAPN14 (11732068_a_at) / RFU TMCC2 (11721928_a_at) / Fold change /veh TMCC2 (11721928_a_at) / RFU IRGQ (11745062_a_at) / Fold change /veh IRGQ (11745062_a_at) / RFU FAM174B (11720279_a_at) / Fold change /veh FAM174B (11720279_a_at) / RFU TMPRSS4 (11748680_a_at) / Fold change /veh TMPRSS4 (11748680_a_at) / RFU FAM212B (11763350_a_at) / Fold change /veh FAM212B (11763350_a_at) / RFU PLEKHG5 (11743358_a_at) / Fold change /veh PLEKHG5 (11743358_a_at) / RFU ZSCAN30 (11745921_a_at) / Fold change /veh ZSCAN30 (11745921_a_at) / RFU CMKLR1 (11741424_a_at) / Fold change /veh CMKLR1 (11741424_a_at) / RFU LOC101060620 /// MAPK8IP1 (11723275_at) / Fold change /veh LOC101060620 /// MAPK8IP1 (11723275_at) / RFU SPTSSB (11747773_x_at) / Fold change /veh SPTSSB (11747773_x_at) / RFU PRSS12 (11739890_at) / Fold change /veh PRSS12 (11739890_at) / RFU BIN1 (11741810_x_at) / Fold change /veh BIN1 (11741810_x_at) / RFU WNT11 (11732464_a_at) / Fold change /veh WNT11 (11732464_a_at) / RFU C10orf10 (11716521_a_at) / Fold change /veh C10orf10 (11716521_a_at) / RFU C5orf56 (11738089_at) / Fold change /veh C5orf56 (11738089_at) / RFU CYB561 (11721691_x_at) / Fold change /veh CYB561 (11721691_x_at) / RFU ANKRD19P (11752326_a_at) / Fold change /veh ANKRD19P (11752326_a_at) / RFU OR2T12 /// OR2T33 /// OR2T8 (11738714_s_at) / Fold change /veh OR2T12 /// OR2T33 /// OR2T8 (11738714_s_at) / RFU VCAN (11748164_a_at) / Fold change /veh VCAN (11748164_a_at) / RFU JSRP1 (11732532_at) / Fold change /veh JSRP1 (11732532_at) / RFU KRTAP10-11 (11738290_x_at) / Fold change /veh KRTAP10-11 (11738290_x_at) / RFU MYO3A (11730013_a_at) / Fold change /veh MYO3A (11730013_a_at) / RFU EBF3 (11725865_a_at) / Fold change /veh EBF3 (11725865_a_at) / RFU CAMK2N1 (11719241_x_at) / Fold change /veh CAMK2N1 (11719241_x_at) / RFU C5orf56 (11738088_a_at) / Fold change /veh C5orf56 (11738088_a_at) / RFU OLFML3 (11715873_a_at) / Fold change /veh OLFML3 (11715873_a_at) / RFU LOC100653217 /// NTM (11731650_a_at) / Fold change /veh LOC100653217 /// NTM (11731650_a_at) / RFU MAPK11 (11762145_a_at) / Fold change /veh MAPK11 (11762145_a_at) / RFU FIZ1 (11724087_x_at) / Fold change /veh FIZ1 (11724087_x_at) / RFU OASL (11726364_x_at) / Fold change /veh OASL (11726364_x_at) / RFU SOX15 (11748057_x_at) / Fold change /veh SOX15 (11748057_x_at) / RFU CD79A (11719716_a_at) / Fold change /veh CD79A (11719716_a_at) / RFU HIST1H1D (11736915_at) / Fold change /veh HIST1H1D (11736915_at) / RFU CASKIN2 (11723855_a_at) / Fold change /veh CASKIN2 (11723855_a_at) / RFU LOC730098 (11760151_x_at) / Fold change /veh LOC730098 (11760151_x_at) / RFU OR4N2 (11742367_at) / Fold change /veh OR4N2 (11742367_at) / RFU PRRT2 (11749266_a_at) / Fold change /veh PRRT2 (11749266_a_at) / RFU SNX32 (11753110_a_at) / Fold change /veh SNX32 (11753110_a_at) / RFU CDHR5 (11726645_a_at) / Fold change /veh CDHR5 (11726645_a_at) / RFU RCAN1 (11760418_a_at) / Fold change /veh RCAN1 (11760418_a_at) / RFU FAM167A (11723789_a_at) / Fold change /veh FAM167A (11723789_a_at) / RFU FAM26E (11764081_at) / Fold change /veh FAM26E (11764081_at) / RFU ISYNA1 (11749810_s_at) / Fold change /veh ISYNA1 (11749810_s_at) / RFU ACY1 (11761880_at) / Fold change /veh ACY1 (11761880_at) / RFU 11764098_at / Fold change /veh 11764098_at / RFU SAMD14 (11745864_x_at) / Fold change /veh SAMD14 (11745864_x_at) / RFU NPB (11741838_a_at) / Fold change /veh NPB (11741838_a_at) / RFU TMPRSS6 (11731388_a_at) / Fold change /veh TMPRSS6 (11731388_a_at) / RFU KRTAP10-2 (11738614_at) / Fold change /veh KRTAP10-2 (11738614_at) / RFU ARHGAP8 /// PRR5-ARHGAP8 (11727945_x_at) / Fold change /veh ARHGAP8 /// PRR5-ARHGAP8 (11727945_x_at) / RFU KRTAP5-7 /// NADSYN1 (11734609_at) / Fold change /veh KRTAP5-7 /// NADSYN1 (11734609_at) / RFU RASL12 (11751679_a_at) / Fold change /veh RASL12 (11751679_a_at) / RFU CDKN2B (11736163_a_at) / Fold change /veh CDKN2B (11736163_a_at) / RFU PRF1 (11729649_at) / Fold change /veh PRF1 (11729649_at) / RFU, ZNF638 /// ZNF638-IT1 / Fold change vs veh, ZNF638 /// ZNF638-IT1 / RFU, PANK3 / Fold change vs veh, PANK3 / RFU, SH3YL1 / Fold change vs veh, SH3YL1 / RFU, ZEB2 / Fold change vs veh, ZEB2 / RFU, NRIP1 / Fold change vs veh, NRIP1 / RFU, PTTG1IP / Fold change vs veh, PTTG1IP / RFU, CAPN2 / Fold change vs veh, CAPN2 / RFU, MED14 / Fold change vs veh, MED14 / RFU, SNORA58 / Fold change vs veh, SNORA58 / RFU, C1orf63 / Fold change vs veh, C1orf63 / RFU, LRRFIP1 / Fold change vs veh, LRRFIP1 / RFU, NDUFAF7 / Fold change vs veh, NDUFAF7 / RFU, SLC12A2 / Fold change vs veh, SLC12A2 / RFU, IBTK / Fold change vs veh, IBTK / RFU, ESF1 / Fold change vs veh, ESF1 / Fold change vs veh, TMEM50B / RFU, TAOK1 / Fold change vs veh, TAOK1 / RFU, ACBD3 / Fold change vs veh, ACBD3 / RFU, TMA16 / Fold change vs veh, TMA16 / RFU, RWDD3 / Fold change vs veh, RWDD3 / RFU, BCAT1 / Fold change vs veh, BCAT1 / RFU, EDEM3 / Fold change vs veh, EDEM3 / RFU, TMEM33 / Fold change vs veh, TMEM33 / RFU, WDR75 / Fold change vs veh, WDR75 / RFU, AHCTF1 / Fold change vs veh, AHCTF1 / RFU, TFRC / Fold change vs veh, TFRC / RFU, ZDHHC17 / Fold change vs veh, ZDHHC17 / RFU, NOM1 / Fold change vs veh, NOM1 / RFU, ARL8B / Fold change vs veh, ARL8B / RFU, ZBTB11 / Fold change vs veh, ZBTB11 / RFU, TAMM41 / Fold change vs veh, TAMM41 / RFU, KIAA1704 /// LOC100996395 / Fold change vs veh, KIAA1704 /// LOC100996395 / RFU, ING1 / Fold change vs veh, ING1 / RFU, TRMT61B / Fold change vs veh, TRMT61B / RFU, FUBP3 / Fold change vs veh, FUBP3 / RFU, TP53 / Fold change vs veh, TP53 / RFU, TNKS2 / Fold change vs veh, TNKS2 / RFU, ZFP14 / Fold change vs veh, ZFP14 / RFU, ACTR2 / Fold change vs veh, ACTR2 / RFU, PPP3R1 / Fold change vs veh, PPP3R1 / RFU, PIK3R1 / Fold change vs veh, PIK3R1 / RFU, HNRNPA1 / Fold change vs veh, HNRNPA1 / RFU, RNF170 / Fold change vs veh, RNF170 / RFU, ZNF28 / Fold change vs veh, ZNF28 / RFU, RNGTT / Fold change vs veh, RNGTT / RFU, OGT / Fold change vs veh, OGT / RFU, BRD1 / Fold change vs veh, BRD1 / RFU, MARS / Fold change vs veh, MARS / RFU, ZNF655 / Fold change vs veh, ZNF655 / RFU, FAHD1 / Fold change vs veh, FAHD1 / RFU, BDP1 / Fold change vs veh, BDP1 / RFU, LRRCC1 / Fold change vs veh, LRRCC1 / RFU, ARID1A / Fold change vs veh, ARID1A / RFU, ZNF146 / Fold change vs veh, ZNF146 / RFU, ZNF330 / Fold change vs veh, ZNF330 / RFU, GPN3 / Fold change vs veh, GPN3 / RFU, C9orf123 / Fold change vs veh, C9orf123 / RFU, N4BP2L2 / Fold change vs veh, N4BP2L2 / RFU, ARFIP1 / Fold change vs veh, ARFIP1 / RFU, FAM179B / Fold change vs veh, FAM179B / RFU, BCL10 / Fold change vs veh, BCL10 / RFU, UHRF1BP1L / Fold change vs veh, UHRF1BP1L / RFU, BET1 / Fold change vs veh, BET1 / RFU, CNOT2 / Fold change vs veh, CNOT2 / RFU, ZNF268 / Fold change vs veh, ZNF268 / Fold change vs veh, ZNF507 / RFU, DGCR2 / Fold change vs veh, DGCR2 / RFU, WDSUB1 / Fold change vs veh, WDSUB1 / Fold change vs veh, HSP90B1 /// MIR3652 / RFU, ADSS / Fold change vs veh, ADSS / RFU, GK / Fold change vs veh, GK / RFU, ZNF148 / Fold change vs veh, ZNF148 / RFU, TAF9 / Fold change vs veh, TAF9 / RFU, SLC1A5 / Fold change vs veh, SLC1A5 / RFU, SLMO2 / Fold change vs veh, SLMO2 / RFU, ABCC4 / Fold change vs veh, ABCC4 / RFU, LOC101060439 /// RAP1B / Fold change vs veh, LOC101060439 /// RAP1B / RFU, RFX7 / Fold change vs veh, RFX7 / RFU, GTPBP10 / Fold change vs veh, GTPBP10 / RFU, CNEP1R1 / Fold change vs veh, CNEP1R1 / RFU, BIVM-ERCC5 /// ERCC5 / Fold change vs veh, BIVM-ERCC5 /// ERCC5 / RFU, ILF3 / Fold change vs veh, ILF3 / RFU 11762660_at / Fold change /veh 11762660_at / RFU VCAN (11757783_s_at) / Fold change /veh VCAN (11757783_s_at) / RFU DDX43 (11728927_at) / Fold change /veh DDX43 (11728927_at) / RFU KRT8 (11758188_x_at) / Fold change /veh KRT8 (11758188_x_at) / RFU NKD1 (11759106_at) / Fold change /veh NKD1 (11759106_at) / RFU SRD5A1 (11742802_a_at) / Fold change /veh SRD5A1 (11742802_a_at) / RFU TPSAB1 /// TPSB2 (11721975_s_at) / Fold change /veh TPSAB1 /// TPSB2 (11721975_s_at) / RFU GSTM3 (11746129_a_at) / Fold change /veh GSTM3 (11746129_a_at) / RFU IL23R (11737362_x_at) / Fold change /veh IL23R (11737362_x_at) / RFU TMEM51 (11727254_a_at) / Fold change /veh TMEM51 (11727254_a_at) / RFU PIWIL2 (11732686_x_at) / Fold change /veh PIWIL2 (11732686_x_at) / RFU ORM1 (11744905_x_at) / Fold change /veh ORM1 (11744905_x_at) / RFU CCDC152 (11743942_at) / Fold change /veh CCDC152 (11743942_at) / RFU ECM1 (11717891_a_at) / Fold change /veh ECM1 (11717891_a_at) / RFU IL23R (11748794_a_at) / Fold change /veh IL23R (11748794_a_at) / RFU TNFAIP8L3 (11732012_x_at) / Fold change /veh TNFAIP8L3 (11732012_x_at) / RFU MBOAT4 (11741988_at) / Fold change /veh MBOAT4 (11741988_at) / RFU 11764193_at / Fold change /veh 11764193_at / RFU TMEM53 (11763286_at) / Fold change /veh TMEM53 (11763286_at) / RFU MAGEB2 (11727129_at) / Fold change /veh MAGEB2 (11727129_at) / RFU TMEM200A (11744735_a_at) / Fold change /veh TMEM200A (11744735_a_at) / RFU CCDC152 (11751479_a_at) / Fold change /veh CCDC152 (11751479_a_at) / RFU FAM211A (11726209_a_at) / Fold change /veh FAM211A (11726209_a_at) / RFU RGS16 (11746705_a_at) / Fold change /veh RGS16 (11746705_a_at) / RFU VCAN (11755009_s_at) / Fold change /veh VCAN (11755009_s_at) / RFU RHOB (11743442_s_at) / Fold change /veh RHOB (11743442_s_at) / RFU RGS16 (11720943_a_at) / Fold change /veh RGS16 (11720943_a_at) / RFU RGS16 (11720944_at) / Fold change /veh RGS16 (11720944_at) / RFU, VPS4B / Fold change vs veh, VPS4B / RFU, CREB1 / Fold change vs veh, CREB1 / RFU, DNAJC13 / Fold change vs veh, DNAJC13 / RFU, GNAQ / Fold change vs veh, GNAQ / RFU, CDK5R1 / Fold change vs veh, CDK5R1 / RFU, ZRANB3 / Fold change vs veh, ZRANB3 / RFU, CUL4A / Fold change vs veh, CUL4A / RFU, CCNY / Fold change vs veh, CCNY / RFU, UFL1 / Fold change vs veh, UFL1 / RFU, COG3 / Fold change vs veh, COG3 / RFU, DIAPH2 / Fold change vs veh, DIAPH2 / RFU, SKA2 / Fold change vs veh, SKA2 / RFU, AFF3 / Fold change vs veh, AFF3 / RFU, LMF1 / Fold change vs veh, LMF1 / RFU, IPO11 / Fold change vs veh, IPO11 / RFU, DFFB / Fold change vs veh, DFFB / RFU, FOXP1 / Fold change vs veh, FOXP1 / RFU, CARD8 / Fold change vs veh, CARD8 / RFU, STRN3 / Fold change vs veh, STRN3 / RFU, ADK / Fold change vs veh, ADK / RFU, RASSF2 / Fold change vs veh, RASSF2 / RFU, WIPF1 / Fold change vs veh, WIPF1 / RFU, LARP1B / Fold change vs veh, LARP1B / RFU, RASA1 / Fold change vs veh, RASA1 / RFU, RB1 / Fold change vs veh, RB1 / RFU, PPFIA1 / Fold change vs veh, PPFIA1 / RFU, MAT2A / Fold change vs veh, MAT2A / RFU, CCT5 / Fold change vs veh, CCT5 / RFU, WDR92 / Fold change vs veh, WDR92 / RFU, CUX1 / Fold change vs veh, CUX1 / RFU, TTC7A / Fold change vs veh, TTC7A / RFU, TMEM135 / Fold change vs veh, TMEM135 / RFU, DEPTOR / Fold change vs veh, DEPTOR / RFU, CPM / Fold change vs veh, CPM / RFU, DNAJB6 / Fold change vs veh, DNAJB6 / RFU, CACNA2D3 / Fold change vs veh, CACNA2D3 / RFU, DTX4 / Fold change vs veh, DTX4 / RFU, TFCP2 / Fold change vs veh, TFCP2 / RFU, GMCL1 /// GMCL1P1 / Fold change vs veh, GMCL1 /// GMCL1P1 / RFU, AEBP2 / Fold change vs veh, AEBP2 / RFU, SNHG1 /// SNORD22 /// SNORD25 /// SNORD26 /// SNORD27 /// SNORD28 /// SNORD29 /// SNORD31 / Fold change vs veh, SNHG1 /// SNORD22 /// SNORD25 /// SNORD26 /// SNORD27 /// SNORD28 /// SNORD29 /// SNORD31 / Fold change (Aza/veh), C12orf56 (ProbeSet 11735607_a_at) / Fold change (ACY-1035/veh), C12orf56 (ProbeSet 11735607_a_at) / Fold change (Aza/veh), FGFR1OP (ProbeSet 11751329_s_at) / Fold change (ACY-1035/veh), FGFR1OP (ProbeSet 11751329_s_at) / Fold change (Aza/veh), VPS36 (ProbeSet 11739960_a_at) / Fold change (ACY-1035/veh), VPS36 (ProbeSet 11739960_a_at) / RFU SYPL1 (11715823_x_at) / Fold change /veh SYPL1 (11715823_x_at) / RFU IGFBP7 (11715501_s_at) / Fold change /veh IGFBP7 (11715501_s_at) / RFU REEP3 (11722064_at) / Fold change /veh REEP3 (11722064_at) / RFU IGLL1 (11728026_x_at) / Fold change /veh IGLL1 (11728026_x_at): dose or concentration left out as unconfirmed
Settings: MV-4-11 cells, 48 hours

Nc1ncn([C@@H]2O[C@H](CO)[C@@H](O)[C@H]2O)c(=O)n1 [azacitidine]
Fold change /veh SRD5A1 (11742802_a_at): 1.21
